Measured values reported in US4604239A, “Antibiotics” (Eli Lilly and Company, priority 1985, dated 1986).
≈ marks a conversion by molar mass, not a printed value. Where two headings read alike, the source gives them in different places.

What was measured:
Staph. aureus = test: experimental bacterial infection in mice; assay type: in vivo; conditions: two doses subcutaneously
Experimental: All of the A41030 factors tested have shown in vivo antimicrobial activity against experimental bacterial infections. When two doses of test compound were administered subcutaneously to mice in illustrative infections, the activity observed is measured as an ED50 value [effective dose in mg./kg. to protect fifty percent of the test animals: See Warren Wick, et al., J. Bacteriol. 81, 233-235 (1961)].

Fusobacterium symbiosum = test: agar-dilution MIC; assay type: cell-based; conditions: Fusobacterium symbiosum 1470; Table 14
Propionibacterium acnes = test: agar-dilution MIC; assay type: cell-based
Source text: Antibiotic A41030 factors A, B and C have also been tested and found to be active against a genus of anaerobic bacteria identified as Propionibacterium acnes.

[1] = tested on: Peptostreptococcus anaerobius; test: agar-dilution MIC; assay type: cell-based
[2] = tested on: Bacteroides melaninogenicus; test: agar-dilution MIC; assay type: cell-based; conditions: Bacteroides melaninogenicus 2736; Table 14
S. pyogenes = test: experimental bacterial infection in mice; assay type: in vivo
Clostridium perfringens = assay type: cell-based; conditions: Clostridium perfringens 81; Table 14
Staphylococcus aureus = test: agar-dilution MIC; assay type: cell-based
Peptococcus prevoti [3] = test: agar-dilution MIC; assay type: cell-based
[4] = tested on: Bacteroides thetaiotaomicron; assay type: cell-based
Source text: (§1) The agar-dilution procedure described by the International Collaborative study (ICS) group was used to determine the minimum inhibitory concentrations (MIC's).

Clostridium septicum = test: agar-dilution MIC; assay type: cell-based; conditions: Clostridium septicum 1128; Table 14
solubility = assay type: physicochemical
electrometric titration = assay type: physicochemical; conditions: electrometric titration in 66% dimethylformamide in water
Source text: Antibiotic A41030 factor A is a white, crystalline solid.

Bacteroides vulgatis [5] = test: agar-dilution MIC; assay type: cell-based; conditions: B. vulgatis 1563; 24-hour; Table 12
Source text: (§2) The A41030 antibiotics, factors A, B, and C, are active against a genus of anaerobic bacteria identified as Bacteroides sp., the 24-hour MIC values being determined by the agar-dilution method, and are set forth in Table 12, which follows.

Bacteroides corrodens [6] = test: agar-dilution MIC; assay type: cell-based; conditions: B. corrodens 1874; 24-hour; Table 12
Source text: as §2

Bacteroides corrodens [7] = test: agar-dilution MIC; assay type: cell-based; conditions: Bacteroides corrodens 1874; Table 14
[8] = tested on: Peptostreptococcus intermedius; test: agar-dilution MIC; assay type: cell-based
Bacteroides vulgatis [9] = test: agar-dilution MIC; assay type: cell-based; conditions: Bacteroides vulgatis 1211; Table 14
[10] = tested on: Fusobacterium necrophorum; test: agar-dilution MIC; assay type: cell-based; conditions: Fusobacterium necrophorum 6054A; Table 14
[11] = tested on: Streptococcus sp. (Group D); test: agar-dilution MIC; assay type: cell-based
Source text: as §1

Streptococcus pyogenes = test: agar-dilution MIC; assay type: cell-based
Source text: as §1

Streptococcus pneumoniae = test: agar-dilution MIC; assay type: cell-based
Source text: as §1

Peptococcus constellatus = test: agar-dilution MIC; assay type: cell-based; conditions: Pc. constellatus 1468; Table 15
Experimental: (§3) The MIC values were determined by the agar-dilution method, and are recorded in Table 15, which follows.

Peptococcus prevoti [12] = test: agar-dilution MIC; assay type: cell-based; conditions: Table 15
Experimental: as §3

[13] = tested on: Peptococcus asaccharolyticus; test: agar-dilution MIC; assay type: cell-based; conditions: Table 15
Experimental: as §3

Peptococcus magnus = test: agar-dilution MIC; assay type: cell-based; conditions: Pc. magnus 1477; Table 15
Experimental: as §3

## NC1C(=O)NC2Cc3ccc(c(Cl)c3)Oc3cc4cc(c3O)Oc3ccc(cc3Cl)C(O)C3NC(=O)C(NC(=O)C4NC(=O)C(NC2=O)c2cc(O)cc(c2)Oc2cc1ccc2O)c1cc(Cl)c(O)c(c1)-c1c(O)cc(O)cc1C(C(=O)O)NC3=O (stereo not shown) [A41030 factor A]
Staph. aureus
  ED50: 1.4 mg/kg
Fusobacterium symbiosum
  MIC: 1.0 µg/mL (≈ 0.811 µM)
Propionibacterium acnes; P. acnes 104, 24-hour, Table 13
  MIC: 0.25 µg/mL (≈ 0.203 µM)
Propionibacterium acnes; P. acnes 107, 24-hour, Table 13
  MIC: 0.06 µg/mL (≈ 0.0486 µM)
Propionibacterium acnes; P. acnes 5170, 24-hour, Table 13
  MIC: ≤ 0.03 µg/mL
Propionibacterium acnes; P. acnes 5176, 24-hour, Table 13
  MIC: ≤ 0.03 µg/mL
Propionibacterium acnes; P. acnes 5187, 24-hour, Table 13
  MIC: ≤ 0.03 µg/mL
Propionibacterium acnes; P. acnes 5197, 24-hour, Table 13
  MIC: ≤ 0.03 µg/mL
Propionibacterium acnes; P. acnes 5226, 24-hour, Table 13
  MIC: 0.5 µg/mL (≈ 0.405 µM)
Propionibacterium acnes; P. acnes 5227, 24-hour, Table 13
  MIC: ≤ 0.03 µg/mL
Propionibacterium acnes; P. acnes 5228, 24-hour, Table 13
  MIC: 1.0 µg/mL (≈ 0.811 µM)
Propionibacterium acnes; P. acnes 5229, 24-hour, Table 13
  MIC: 0.5 µg/mL (≈ 0.405 µM)
Propionibacterium acnes; P. acnes 5246, 24-hour, Table 13
  MIC: 0.06 µg/mL (≈ 0.0486 µM)
Propionibacterium acnes; P. acnes 5292, 24-hour, Table 13
  MIC: 0.06 µg/mL (≈ 0.0486 µM)
Propionibacterium acnes; Propionibacterium acnes 79, Table 14
  MIC: ≤ 0.25 µg/mL
[1]; Peptostreptococcus anaerobius 1428, Table 14
  MIC: ≤ 0.25 µg/mL
[1]; Ps. anaerobius 8, Table 15
  MIC: 0.5 µg/mL (≈ 0.405 µM)
[1]; Ps. anaerobius 52, Table 15
  MIC: 0.5 µg/mL (≈ 0.405 µM)
[1]; Ps. anaerobius 59, Table 15
  MIC: 0.5 µg/mL (≈ 0.405 µM)
[1]; Ps. anaerobius 1418, Table 15
  MIC: ≤ 0.03 µg/mL
[1]; Ps. anaerobius 1428, Table 15
  MIC: 0.5 µg/mL (≈ 0.405 µM)
[1]; Ps. anaerobius 1451, Table 15
  MIC: 0.5 µg/mL (≈ 0.405 µM)
[1]; Ps. anaerobius 1477, Table 15
  MIC: 0.5 µg/mL (≈ 0.405 µM)
[2]
  MIC: 4 µg/mL (≈ 3.24 µM)
S. pyogenes; S. pyogenes infection in mice, two doses subcutaneously
  ED50: 2.8 mg/kg
S. pyogenes; against S. pyogenes in mice, oral
  in vivo oral activity: > 300 mg./kg. X 2
Clostridium perfringens
  MIC: 0.5 µg/mL (≈ 0.405 µM)
Staphylococcus aureus; Staphylococcus aureus 3055, Table 11
  MIC: 0.13 µg/mL (≈ 0.105 µM)
Staphylococcus aureus; Staphylococcus aureus 3055, end point after 24 hours, Table 18
  MIC: 0.06 µg/mL (≈ 0.0486 µM)
Staphylococcus aureus; Staphylococcus aureus 3074, Penicillin-resistant, Table 11
  MIC: ≤ 0.06 µg/mL
Staphylococcus aureus; Staphylococcus aureus 3131 (**Penicillin, methicillin, and erythromycin), Table 11
  MIC: ≤ 0.06 µg/mL
Staphylococcus aureus; Staphylococcus aureus 3134 (**Penicillin, methicillin, and erythromycin), Table 11
  MIC: ≤ 0.06 µg/mL
Staphylococcus aureus; Staphylococcus aureus H43, Penicillin-resistant, Table 11
  MIC: ≤ 0.06 µg/mL
Staphylococcus aureus; Staphylococcus aureus H290, Table 11
  MIC: ≤ 0.06 µg/mL
Staphylococcus aureus; Staphylococcus aureus S13E, Table 17
  MIC: 0.25 µg/mL (≈ 0.203 µM)
Staphylococcus aureus; Staphylococcus aureus V57, Penicillin-resistant, Table 11
  MIC: ≤ 0.06 µg/mL
Staphylococcus aureus; Staphylococcus aureus V138, end point after 24 hours, Table 18
  MIC: 0.06 µg/mL (≈ 0.0486 µM)
Peptococcus prevoti [3]; Pc. prevoti 1281, Table 15
  MIC: 0.5 µg/mL (≈ 0.405 µM)
Peptococcus prevoti [3]; Peptococcus prevoti 1281, Table 14
  MIC: ≤ 0.25 µg/mL
[4]; B. thetaiotaomicron 1438, 24-hour, Table 12
  MIC: 64 µg/mL (≈ 51.9 µM)
[4]; Bacteroides thetaiotaomicron 1438, Table 14
  MIC: 64 µg/mL (≈ 51.9 µM)
Clostridium septicum
  MIC: 2 µg/mL (≈ 1.62 µM)
solubility
  solubility (solvents): soluble in alcohol-water mixtures, in dimethylsulfoxide, in dimethylformamide, in dimethylsulfoxide-water mixtures, in dimethylformamide-water mixtures, in dilute aqueous acid, and in dilute aqueous base
Electrometric titration
  possibly additional pKa's: > 10.5
Bacteroides vulgatis [5]
  MIC: 32 µg/mL (≈ 25.9 µM)
Bacteroides corrodens [6]
  MIC: 32 µg/mL (≈ 25.9 µM)
Bacteroides corrodens [7]
  MIC: 64 µg/mL (≈ 51.9 µM)
[8]; Peptostreptococcus intermedius 1264, Table 14
  MIC: 1.0 µg/mL (≈ 0.811 µM)
[8]; Ps. intermedius 1264, Table 15
  MIC: ≤ 0.03 µg/mL
[8]; Ps. intermedius 1524, Table 15
  MIC: 0.5 µg/mL (≈ 0.405 µM)
[8]; Ps. intermedius 1624, Table 15
  MIC: 1.0 µg/mL (≈ 0.811 µM)
Bacteroides vulgatis [9]
  MIC: 32 µg/mL (≈ 25.9 µM)
[10]
  MIC: 8 µg/mL (≈ 6.49 µM)
[11]; Streptococcus sp. (Group D) 238, Table 11
  MIC: 0.25 µg/mL (≈ 0.203 µM)
[11]; Streptococcus sp. (Group D) 282, Table 11
  MIC: 0.25 µg/mL (≈ 0.203 µM)
[11]; Streptococcus sp. (Group D) 9901, Table 11
  MIC: 0.25 µg/mL (≈ 0.203 µM)
[11]; Streptococcus sp. (Group D) 12253F, Table 11
  MIC: 0.25 µg/mL (≈ 0.203 µM)
[11]; Streptococcus sp. (Group D) Guze, Table 11
  MIC: 0.25 µg/mL (≈ 0.203 µM)
[11]; Streptococcus sp. Group D 2041, end point after 24 hours, Table 18
  MIC: 0.5 µg/mL (≈ 0.405 µM)
[11]; Streptococcus sp. Group D 2058, end point after 24 hours, Table 18
  MIC: 0.5 µg/mL (≈ 0.405 µM)
[11]; Streptococcus sp. Group D 8043, end point after 24 hours, Table 18
  MIC: 0.25 µg/mL (≈ 0.203 µM)
[11]; Streptococcus sp. Group D 9901, end point after 24 hours, Table 18
  MIC: 1 µg/mL (≈ 0.811 µM)
[11]; Streptococcus sp. Group D 9960, Table 17
  MIC: 2 µg/mL (≈ 1.62 µM)
[11]; Streptococcus sp. Group D 9960, end point after 24 hours, Table 18
  MIC: 0.5 µg/mL (≈ 0.405 µM)
[11]; Streptococcus sp. Group D 12253F, end point after 24 hours, Table 18
  MIC: 0.25 µg/mL (≈ 0.203 µM)
[11]; Streptococcus sp. Group D Mx161, end point after 24 hours, Table 18
  MIC: 0.25 µg/mL (≈ 0.203 µM)
[11]; Streptococcus sp. Group D X66, Table 17
  MIC: 1 µg/mL (≈ 0.811 µM)
[11]; Streptococcus sp. Group D X66, end point after 24 hours, Table 18
  MIC: 0.25 µg/mL (≈ 0.203 µM)
Streptococcus pyogenes; Streptococcus pyogenes 9943, Table 11
  MIC: 0.25 µg/mL (≈ 0.203 µM)
Streptococcus pyogenes; Streptococcus pyogenes 10389, Table 11
  MIC: 0.25 µg/mL (≈ 0.203 µM)
Streptococcus pyogenes; Streptococcus pyogenes 12344, Table 11
  MIC: 0.5 µg/mL (≈ 0.405 µM)
Streptococcus pyogenes; Streptococcus pyogenes C203, Table 11
  MIC: 0.25 µg/mL (≈ 0.203 µM)
Streptococcus pyogenes; Streptococcus pyogenes C203, Table 17
  MIC: 0.5 µg/mL (≈ 0.405 µM)
Streptococcus pyogenes; Streptococcus pyogenes C203, end point after 24 hours, Table 18
  MIC: 0.25 µg/mL (≈ 0.203 µM)
Streptococcus pyogenes; Streptococcus pyogenes M-6517, Table 11
  MIC: 0.25 µg/mL (≈ 0.203 µM)
Streptococcus pneumoniae; Streptococcus pneumoniae 2764, Table 11
  MIC: 0.25 µg/mL (≈ 0.203 µM)
Streptococcus pneumoniae; Streptococcus pneumoniae 6301, Table 11
  MIC: 0.25 µg/mL (≈ 0.203 µM)
Streptococcus pneumoniae; Streptococcus pneumoniae B1-438, end point after 24 hours, Table 18
  MIC: 0.25 µg/mL (≈ 0.203 µM)
Streptococcus pneumoniae; Streptococcus pneumoniae BI-343, Table 11
  MIC: 0.25 µg/mL (≈ 0.203 µM)
Streptococcus pneumoniae; Streptococcus pneumoniae Park I, Table 11
  MIC: 0.25 µg/mL (≈ 0.203 µM)
Streptococcus pneumoniae; Streptococcus pneumoniae Park I, Table 17
  MIC: 0.5 µg/mL (≈ 0.405 µM)
Streptococcus pneumoniae; Streptococcus pneumoniae Type 14, Table 11
  MIC: 0.25 µg/mL (≈ 0.203 µM)
Peptococcus constellatus
  MIC: 0.5 µg/mL (≈ 0.405 µM)
Peptococcus prevoti [12]; Pc. prevoti 1293
  MIC: 1.0 µg/mL (≈ 0.811 µM)
Peptococcus prevoti [12]; Pc. prevoti 1407
  MIC: 1.0 µg/mL (≈ 0.811 µM)
[13]; Pc. asaccharolyticus 1302
  MIC: ≤ 0.03 µg/mL
[13]; Pc. asaccharolyticus 1344
  MIC: 0.5 µg/mL (≈ 0.405 µM)
Peptococcus magnus
  MIC: 0.5 µg/mL (≈ 0.405 µM)
